Test results reported in patent US20040018941A1, “Fused-benzene derivatives of thiouracil, herbicidal and desiccant compositions contaning them” (ISHIHARA SANGYO KAISHA, LTD., priority 2002, published 2004).

Experiments:
Type in all cases: in vivo
Conditions in all cases: rating 0-100 (0 no damage, 100 complete death), 14 days after application
[1] = test system: common ragweed (Ambrosia artemisiifolia L., AMBEL); assay: Post-emerge herbicidal activity, greenhouse screen, AMBEL
Source text: (§1) A standard greenhouse herbicide activity screening system was used to evaluate the herbicidal efficacy and crop safety of these test compounds. Seven broadleaf weed species including redroot pigweed (Amaranthus retroflexus, AMARE), velvetleaf (Abutilon theophrasti, ABUTH), sicklepod (Cassia obtusifolia, CASOB), ivyleaf morningglory (Ipomoea hederacea, IPOHE), lambsquarters (Chenopodium album, CHEAL), common ragweed (Ambrosia artemisiifolia L., AMBEL), and cocklebur (Xanthium strumarium, XANST) were used as test species. Four grass weed species including green foxtail (Setaria viridis, SETVI), barnyardgrass (Echinochloa crus-galli, ECHCG), johnsongrass (Sorghum halepense, SORHA), and large crabgrass (Digitaria sanguinalis, DIGSA) were also used. In addition, three crop species, field corn (Zea mays L., var. Dekalb 527, CORN), soybean (Glycine max L., var. Pella 86, SOY), and upland rice (Oryza sp., var. Tebonnet, RICE) were included.
(§2) All plants were grown in 10 cm square plastic pots which were filled with a sandy loam soil mix. For pre-emerge tests, seeds were planted one day prior to application of the test compounds. For post-emerge tests, seeds were planted 8-21 days prior to the test to allow emergence and good foliage development prior to application of the test substances. At the time of the post-emerge application, plants of all species were usually at the 2-3 leaf stage of development.
(§3) All test compounds were dissolved in acetone and applied to the test units in a volume of 187 l/ha. Test materials were applied at rates ranging from 15 g ai/ha to 1000 g ai/ha using a track sprayer equipped with a TJ8001 E even flow flat fan spray nozzle. Plants were arranged on a shelf so that the top of the canopy (post-emerge) or top of the soil surface (pre-emerge) was 40-45 cm below the nozzle. Pressurized air was used to force the test solution through the nozzle as it was mechanically advanced over the top of all test plants/pots. This application simulates a typical commercial field herbicide application.
(§4) In the post-emerge test, a commercial non-ionic surfactant was also included (0.25% v/v) to enhance wetting of the leaf surfaces of target plants. Immediately after application, test units of the pre-emerge applications were watered at the soil surface to incorporate the test materials.
(§5) At 14 days after application of the test materials, phytotoxicity ratings were recorded. A rating scale of 0-100 was used as previously described in Research Methods in Weed Science, 2nd edition, B. Truelove, Ed., Southern Weed Science Society, Auburn University, Auburn, Ala., 1977. Briefly, “0” corresponds to no damage and “100” corresponds to complete death of all plants in the test unit. This scale was used both to determine efficacy against weed species and damage to crop species. Herbicide activity data for various compounds of this invention, which are shown by compound No. in Tables 1-7, are shown in Tables 8 and 9.

[2] = test system: sicklepod (Cassia obtusifolia, CASOB); assay: Post-emerge herbicidal activity, greenhouse screen, CASOB
Source text: as §1, §2, §3, §4, §5

[3] = test system: green foxtail (Setaria viridis, SETVI); assay: Pre-emerge herbicidal activity, greenhouse screen, SETVI
Source text: as §1, §2, §3, §4, §5

[4] = test system: johnsongrass (Sorghum halepense, SORHA); assay: Pre-emerge herbicidal activity, greenhouse screen, SORHA
Source text: as §1, §2, §3, §4, §5

[5] = test system: large crabgrass (Digitaria sanguinalis, DIGSA); assay: Pre-emerge herbicidal activity, greenhouse screen, DIGSA
Source text: as §1, §2, §3, §4, §5

[6] = test system: sicklepod (Cassia obtusifolia, CASOB); assay: Pre-emerge herbicidal activity, greenhouse screen, CASOB
Source text: as §1, §2, §3, §4, §5

[7] = test system: large crabgrass (Digitaria sanguinalis, DIGSA); assay: Post-emerge herbicidal activity, greenhouse screen, DIGSA
Source text: as §1, §2, §3, §4, §5

[8] = test system: barnyardgrass (Echinochloa crus-galli, ECHCG); assay: Pre-emerge herbicidal activity, greenhouse screen, ECHCG
Source text: as §1, §2, §3, §4, §5

[9] = test system: ivyleaf morningglory (Ipomoea hederacea, IPOHE); assay: Pre-emerge herbicidal activity, greenhouse screen, IPOHE
Source text: as §1, §2, §3, §4, §5

[10] = test system: velvetleaf (Abutilon theophrasti, ABUTH); assay: Pre-emerge herbicidal activity, greenhouse screen, ABUTH
Source text: as §1, §2, §3, §4, §5

[11] = test system: common ragweed (Ambrosia artemisiifolia L., AMBEL); assay: Pre-emerge herbicidal activity, greenhouse screen, AMBEL
Source text: as §1, §2, §3, §4, §5

[12] = test system: barnyardgrass (Echinochloa crus-galli, ECHCG); assay: Post-emerge herbicidal activity, greenhouse screen, ECHCG
Source text: as §1, §2, §3, §4, §5

[13] = test system: johnsongrass (Sorghum halepense, SORHA); assay: Post-emerge herbicidal activity, greenhouse screen, SORHA
Source text: as §1, §2, §3, §4, §5

[14] = test system: velvetleaf (Abutilon theophrasti, ABUTH); assay: Post-emerge herbicidal activity, greenhouse screen, ABUTH
Source text: as §1, §2, §3, §4, §5

[15] = test system: redroot pigweed (Amaranthus retroflexus, AMARE); assay: Pre-emerge herbicidal activity, greenhouse screen, AMARE
Source text: as §1, §2, §3, §4, §5

[16] = test system: green foxtail (Setaria viridis, SETVI); assay: Post-emerge herbicidal activity, greenhouse screen, SETVI
Source text: as §1, §2, §3, §4, §5

[17] = test system: ivyleaf morningglory (Ipomoea hederacea, IPOHE); assay: Post-emerge herbicidal activity, greenhouse screen, IPOHE
Source text: as §1, §2, §3, §4, §5

[18] = test system: lambsquarters (Chenopodium album, CHEAL); assay: Post-emerge herbicidal activity, greenhouse screen, CHEAL
Source text: as §1, §2, §3, §4, §5

[19] = test system: redroot pigweed (Amaranthus retroflexus, AMARE); assay: Post-emerge herbicidal activity, greenhouse screen, AMARE
Source text: as §1, §2, §3, §4, §5

[20] = test system: lambsquarters (Chenopodium album, CHEAL); assay: Pre-emerge herbicidal activity, greenhouse screen, CHEAL
Source text: as §1, §2, §3, §4, §5

SMILES	Post-emerge Herbicidal Activity AMBEL ([1]; 63 g ai/ha)	Post-emerge Herbicidal Activity AMBEL ([1]; 250 g ai/ha)	Post-emerge Herbicidal Activity CASOB ([2]; 63 g ai/ha)	Post-emerge Herbicidal Activity CASOB ([2]; 250 g ai/ha)	Pre-emerge Herbicidal Activity SETVI ([3]; 63 g ai/ha)	Pre-emerge Herbicidal Activity SETVI ([3]; 250 g ai/ha)	Pre-emerge Herbicidal Activity SORHA ([4]; 63 g ai/ha)	Pre-emerge Herbicidal Activity SORHA ([4]; 250 g ai/ha)	Pre-emerge Herbicidal Activity DIGSA ([5]; 63 g ai/ha)	Pre-emerge Herbicidal Activity DIGSA ([5]; 250 g ai/ha)	Pre-emerge Herbicidal Activity CASOB ([6]; 63 g ai/ha)	Pre-emerge Herbicidal Activity CASOB ([6]; 250 g ai/ha)	Post-emerge Herbicidal Activity DIGSA ([7]; 63 g ai/ha)	Post-emerge Herbicidal Activity DIGSA ([7]; 250 g ai/ha)	Pre-emerge Herbicidal Activity ECHCG ([8]; 63 g ai/ha)	Pre-emerge Herbicidal Activity ECHCG ([8]; 250 g ai/ha)	Pre-emerge Herbicidal Activity IPOHE ([9]; 63 g ai/ha)	Pre-emerge Herbicidal Activity IPOHE ([9]; 250 g ai/ha)	Pre-emerge Herbicidal Activity ABUTH ([10]; 63 g ai/ha)	Pre-emerge Herbicidal Activity ABUTH ([10]; 250 g ai/ha)	other results
Cn1c(C(F)(F)F)cc(=O)n(-c2c(F)cc(Cl)c3ncoc23)c1=S [Compound 1-1, 3-(4-chloro-6-fluoro-1,3-benzoxazol-7-yl)-1-methyl-2-thioxo-6-(trifluoromethyl)-2,3-dihydropyrimidin4(1H)-one]	100	100	100	100	100	100	100	100	100	100	100	100	95	99	100	100	100	100	100	100	Pre-emerge Herbicidal Activity AMBEL ([11]; 63 g ai/ha): 100; Pre-emerge Herbicidal Activity AMBEL ([11]; 250 g ai/ha): 100; Post-emerge Herbicidal Activity ECHCG ([12]; 63 g ai/ha): 100; Post-emerge Herbicidal Activity ECHCG ([12]; 250 g ai/ha): 100; Post-emerge Herbicidal Activity SORHA ([13]; 63 g ai/ha): 95; Post-emerge Herbicidal Activity SORHA ([13]; 250 g ai/ha): 100; Post-emerge Herbicidal Activity ABUTH ([14]; 63 g ai/ha): 100; Post-emerge Herbicidal Activity ABUTH ([14]; 250 g ai/ha): 100; Pre-emerge Herbicidal Activity AMARE ([15]; 63 g ai/ha): 100; Pre-emerge Herbicidal Activity AMARE ([15]; 250 g ai/ha): 100; Post-emerge Herbicidal Activity SETVI ([16]; 63 g ai/ha): 100; Post-emerge Herbicidal Activity SETVI ([16]; 250 g ai/ha): 100; Post-emerge Herbicidal Activity IPOHE ([17]; 63 g ai/ha): 100; Post-emerge Herbicidal Activity IPOHE ([17]; 250 g ai/ha): 100; Post-emerge Herbicidal Activity CHEAL ([18]; 63 g ai/ha): 100; Post-emerge Herbicidal Activity CHEAL ([18]; 250 g ai/ha): 100; Post-emerge Herbicidal Activity AMARE ([19]; 63 g ai/ha): 100; Post-emerge Herbicidal Activity AMARE ([19]; 250 g ai/ha): 100; Pre-emerge Herbicidal Activity CHEAL ([20]; 63 g ai/ha): 100; Pre-emerge Herbicidal Activity CHEAL ([20]; 250 g ai/ha): 100
Cn1c(C(F)(F)F)cc(=O)n(-c2c(F)cc(Cl)c3nc(C(C)(C)C)oc23)c1=S [Compound 1-3, 3-[2-t-butyl-4-chloro-6-fluoro-1,3-benzoxazol-7-yl]-1-methyl-2-thioxo-6-(trifluoromethyl)-2,3-dihydropyrimidin-4(1H)-one]	99	100	70	100	100	100	100	100	100	100	95	100	50	65	100	100	95	100	100	100	Pre-emerge Herbicidal Activity AMBEL ([11]; 63 g ai/ha): 99; Pre-emerge Herbicidal Activity AMBEL ([11]; 250 g ai/ha): 100; Post-emerge Herbicidal Activity ECHCG ([12]; 63 g ai/ha): 100; Post-emerge Herbicidal Activity ECHCG ([12]; 250 g ai/ha): 100; Post-emerge Herbicidal Activity SORHA ([13]; 63 g ai/ha): 65; Post-emerge Herbicidal Activity SORHA ([13]; 250 g ai/ha): 85; Post-emerge Herbicidal Activity ABUTH ([14]; 63 g ai/ha): 100; Post-emerge Herbicidal Activity ABUTH ([14]; 250 g ai/ha): 100; Pre-emerge Herbicidal Activity AMARE ([15]; 63 g ai/ha): 100; Pre-emerge Herbicidal Activity AMARE ([15]; 250 g ai/ha): 100; Post-emerge Herbicidal Activity SETVI ([16]; 63 g ai/ha): 99; Post-emerge Herbicidal Activity SETVI ([16]; 250 g ai/ha): 100; Post-emerge Herbicidal Activity IPOHE ([17]; 63 g ai/ha): 100; Post-emerge Herbicidal Activity IPOHE ([17]; 250 g ai/ha): 100; Post-emerge Herbicidal Activity CHEAL ([18]; 63 g ai/ha): 100; Post-emerge Herbicidal Activity CHEAL ([18]; 250 g ai/ha): 100; Post-emerge Herbicidal Activity AMARE ([19]; 63 g ai/ha): 100; Post-emerge Herbicidal Activity AMARE ([19]; 250 g ai/ha): 100; Pre-emerge Herbicidal Activity CHEAL ([20]; 63 g ai/ha): 100; Pre-emerge Herbicidal Activity CHEAL ([20]; 250 g ai/ha): 100
Cc1cc2c(-n3c(=O)cc(C(F)(F)F)n(C)c3=S)c(F)cc(Cl)c2o1 [Compound 2-2, 3-(7-chloro-5-fluoro-2-methyl-1-benzofuran-4-yl)-1-methyl-2-thioxo-6-(trifluoromethyl)-2,3-dihydropyrimidin-4(1H)-one]	100	100	100	100	100	100	100	100	100	100	99	100	85	100	99	100	99	99	100	100	Pre-emerge Herbicidal Activity AMBEL ([11]; 63 g ai/ha): 100; Pre-emerge Herbicidal Activity AMBEL ([11]; 250 g ai/ha): 100; Post-emerge Herbicidal Activity ECHCG ([12]; 63 g ai/ha): 100; Post-emerge Herbicidal Activity ECHCG ([12]; 250 g ai/ha): 100; Post-emerge Herbicidal Activity SORHA ([13]; 63 g ai/ha): 100; Post-emerge Herbicidal Activity SORHA ([13]; 250 g ai/ha): 100; Post-emerge Herbicidal Activity ABUTH ([14]; 63 g ai/ha): 100; Post-emerge Herbicidal Activity ABUTH ([14]; 250 g ai/ha): 100; Pre-emerge Herbicidal Activity AMARE ([15]; 63 g ai/ha): 100; Pre-emerge Herbicidal Activity AMARE ([15]; 250 g ai/ha): 100; Post-emerge Herbicidal Activity SETVI ([16]; 63 g ai/ha): 100; Post-emerge Herbicidal Activity SETVI ([16]; 250 g ai/ha): 100; Post-emerge Herbicidal Activity IPOHE ([17]; 63 g ai/ha): 100; Post-emerge Herbicidal Activity IPOHE ([17]; 250 g ai/ha): 100; Post-emerge Herbicidal Activity CHEAL ([18]; 63 g ai/ha): 100; Post-emerge Herbicidal Activity CHEAL ([18]; 250 g ai/ha): 100; Post-emerge Herbicidal Activity AMARE ([19]; 63 g ai/ha): 100; Post-emerge Herbicidal Activity AMARE ([19]; 250 g ai/ha): 100; Pre-emerge Herbicidal Activity CHEAL ([20]; 63 g ai/ha): 100; Pre-emerge Herbicidal Activity CHEAL ([20]; 250 g ai/ha): 100
